Experimental data reported in ChEMBL document CHEMBL3352521, “Two Potent OXE-R Antagonists: Assignment of Stereochemistry” (ACS Med Chem Lett, 2014).

Target: Oxoeicosanoid receptor 1 (Homo sapiens, UniProt Q8TDS5)
Assay: Antagonist activity at OXE receptor in human neutrophils assessed as inhibition of calcium mobilization by fluorescence assay
Format: functional

Sequence of Oxoeicosanoid receptor 1 (Q8TDS5 whole entry): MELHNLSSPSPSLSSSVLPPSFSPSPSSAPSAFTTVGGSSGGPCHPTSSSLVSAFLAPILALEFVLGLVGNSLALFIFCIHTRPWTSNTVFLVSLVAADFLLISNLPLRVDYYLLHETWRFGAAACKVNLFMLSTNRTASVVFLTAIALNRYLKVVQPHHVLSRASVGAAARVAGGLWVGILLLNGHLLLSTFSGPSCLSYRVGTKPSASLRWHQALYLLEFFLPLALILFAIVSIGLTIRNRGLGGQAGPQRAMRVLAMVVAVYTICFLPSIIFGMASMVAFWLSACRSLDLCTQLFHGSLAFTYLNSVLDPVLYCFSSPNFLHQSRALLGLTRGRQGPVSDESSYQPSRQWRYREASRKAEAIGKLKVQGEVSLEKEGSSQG

| IC50 [nM] | Structure (SMILES) |
| --- | --- |
| 2.7 | CCCCCCc1c(C(=O)C[C@@H](C)CC(=O)O)c2cc(Cl)ccc2n1C |
| 6 | CCCCCCc1c(C(=O)C[C@H](C)CC(=O)O)c2cc(Cl)ccc2n1C |
